Measurements as given in ChEMBL document CHEMBL1671703, “Bile acids improve the antimicrobial effect of rifaximin” (2010).
The source made the active and inactive calls. The rule behind the calls is not given here.

What was measured:
[1] = tested on: Escherichia coli; experiment: Inhibition of RNA synthesis in Escherichia coli H10407 assessed as inhibition of beta-galactosidase expression at 32 ug/ml in presence of 4 mM bile acid; assay type: functional, ETEC H10407
[2] = tested on: Escherichia coli; experiment: Inhibition of RNA synthesis in Escherichia coli H10407 assessed as inhibition of beta-galactosidase expression relative to control; assay type: functional; conditions: ETEC H10407
[3] = tested on: Escherichia coli; experiment: Antimicrobial activity against Escherichia coli H10407 assessed as decrease in cell density at 16 ug/ml after 4 hrs in presence of 4 mM pooled synthetic bile acid; assay type: functional, ETEC H10407
[4] = tested on: Escherichia coli; experiment: Antimicrobial activity against Escherichia coli H10407 assessed as decrease in cell density at 16 ug/ml after 4 hrs in presence of 4 mM chenodeoxycholic acid; assay type: functional, ETEC H10407
[5] = tested on: Escherichia coli; experiment: Bacteriostatic activity against Escherichia coli H10407 at 8 ug/ml in presence of bile acid relative to absence of bile acid; assay type: functional, ETEC H10407
[6] = tested on: Escherichia coli; experiment: Antimicrobial activity against Escherichia coli H10407 assessed as growth inhibition at 16 ug/ml; assay type: functional; conditions: ETEC H10407
[7] = tested on: Escherichia coli; experiment: Antimicrobial activity against Escherichia coli H10407 assessed as decrease in cell density at 16 ug/ml after 4 hrs in presence of 4 mM glycocholic acid; assay type: functional, ETEC H10407
[8] = tested on: Escherichia coli; experiment: Inhibition of RNA synthesis in Escherichia coli H10407 assessed as inhibition of beta-galactosidase expression at 8 ug/ml in presence of 4 mM bile acid; assay type: functional, ETEC H10407
[9] = tested on: Escherichia coli; experiment: Antimicrobial activity against Escherichia coli H10407 assessed as decrease in cell density at 16 ug/ml after 4 hrs in presence of 4 mM human bile acid; assay type: functional, ETEC H10407
[10] = tested on: Escherichia coli; experiment: Bacteriostatic activity against Escherichia coli H10407 at 16 ug/ml in presence of bile acid relative to absence of bile acid; assay type: functional, ETEC H10407
[11] = tested on: Escherichia coli; experiment: Antimicrobial activity against Escherichia coli H10407 assessed as decrease in cell density at 16 ug/ml after 4 hrs in presence of 4 mM taurocholic acid; assay type: functional, ETEC H10407
[12] = tested on: Escherichia coli; experiment: Decrease in protein expression in Escherichia coli H10407 at 16 ug/ml after 4 hrs; assay type: functional, ETEC H10407; design: scale not given: the % may be the effect or the level left
[13] = tested on: Escherichia coli; experiment: Inhibition of RNA synthesis in Escherichia coli H10407 assessed as inhibition of beta-galactosidase expression at 16 ug/ml in presence of […] bile acid; assay type: functional, ETEC H10407
[14] = tested on: Escherichia coli; experiment: Antimicrobial activity against Escherichia coli H10407 assessed as decrease in cell density at 16 ug/ml after 4 hrs in presence of 4 mM deoxycholic acid; assay type: functional, ETEC H10407
[15] = tested on: Escherichia coli; experiment: Antimicrobial activity against Escherichia coli H10407 assessed as decrease in cell density at 16 ug/ml after 4 hrs in presence of 4 mM cholic acid; assay type: functional, ETEC H10407
[16] = tested on: Escherichia coli; experiment: Antimicrobial activity against Escherichia coli H10407 assessed as decrease in cell density at 16 ug/ml after 4 hrs in presence of 4 mM lithocholic acid; assay type: functional, ETEC H10407
[17] = tested on: Escherichia coli; experiment: Antimicrobial activity against Escherichia coli H10407 assessed as decrease in cell density at 16 ug/ml after 4 hrs; assay type: functional; conditions: ETEC H10407

CO[C@H]1/C=C/O[C@@]2(C)Oc3c(C)c(O)c4c(O)c(c5c(nc6cc(C)ccn65)c4c3C2=O)NC(=O)/C(C)=C\C=C\[C@H](C)[C@H](O)[C@@H](C)[C@@H](O)[C@@H](C)[C@H](OC(C)=O)[C@@H]1C [RIFAXIMIN]
inhibition (INH) [1]: 82% | inhibition [2]: Active | inhibition (INH) [3]: 70.6% | inhibition (INH) [4]: 89.2% | fold change (FC) [5]: 2 | inhibition [6]: Active | inhibition (INH) [7]: 80.8% | inhibition (INH) [8]: 33% | inhibition (INH) [9]: 72.8% | fold change (FC) [10]: 5.5 | inhibition (INH) [11]: 77.6% | Activity [12]: 59% | inhibition (INH) [13]: 49% | inhibition (INH) [14]: 93.8% | inhibition (INH) [15]: 95.5% | inhibition (INH) [16]: 43.9% | Activity [17]: Active
